Test system: human G-CSF-dependent cell strain (BAF/hGCSFR)
Assay: Induction of cell growth of a human G-CSF-dependent cell strain (WST-1 absorbance), expressed as human-G-CSF equivalent concentration
Assay type: cell-based
Conditions: 48 hours incubation, mean±standard error, n=5
Procedure: Cloning of human G-CSF receptor gene was performed through RT-PCR by using primers created on the basis of the human G-CSF receptor gene using a human spleen cDNA library. The thus cloned human G-CSF receptor gene inserted to a multicloning site of an expression vector. Subsequently, the gene-inserted expression vector was transformed into E. coli for multiplication, and the expression vector was extracted. An aliquot of the expression vector (20 μg) was added to host cells (BAF/B03) prepared to 5×10^7 cells/800 μL K-PBS (30.8 mM NaCl, 120.7 mM KCl, 8.1 mM Na2HPO4, 1.46 mM KH2PO4, 5 mM MgCl2), followed by standing still at 4° C. for 15 minutes. For gene transfer, electroporation was performed at a voltage of 280 V and a capacitance of 950 μF. After completion of gene transfer, the cells were suspended in a DMEM medium ((+) 10% FCS) containing recombinant human G-CSF (rhG-CSF, 20 ng/mL) and puromycin (2 μg/mL), whereby a human G-CSF dependent cell strain was created.
For studying the cell multiplication ability with respect to rhG-CSF, the following procedure was carried out. Briefly, cells in which the human G-CSF receptor gene had been inserted (BAF/hGCSFR) were collected, and washed with PBS(−). Subsequently, the cells were suspended in DMEM medium, and the medium containing the cells was prepared to the wells of a 96-well plate (5×10^4 cells/well). Then, rhG-CSF was added to the wells (0, 0.006, 0.025, 0.1, 0.4 ng/mL), and the cells in the wells were cultured under 5% CO2 for 48 hours at 37° C. After completion of incubation, a solution of WST-1/1-methoxy PMS was added to the wells (final concentration: 5 mM), and the cells in the wells were cultured in a CO2 incubator for 2 hours. After completion of incubation, the absorbance of the cultured solution was measured at a wavelength of 450 nm. The results are shown in FIG. 1 (mean±standard error, n=5).
A solution prepared by diluting a compound with DMEM was added to the wells of a 96-well microplate (10 μL/well). The human G-CSF-dependent cell strain was added to the wells (5.0×10^4 cells/100 μL), followed by incubation for 48 hours at 37° C. After completion of incubation, a solution of WST-1/1-methoxy PMS (final concentration: 5 mM) was added to the wells, followed by incubation in a CO2 incubator for 2 hours. After completion of incubation, the absorbance was measured at a wavelength of 450 nm. The results are shown in FIG. 2 (mean±standard error, n=5).
Using the test data obtained from Test Example 1, human-G-CSF equivalent concentrations (ng/mL) corresponding to respective compound concentrations employed in Test Example 2 were calculated. The results are shown in Table 1 (mean±standard error, n=5).

| SMILES | human-G-CSF equivalent concentration (compound conc. 10^−6 M) [ng/mL] | human-G-CSF equivalent concentration (compound conc. 10^−7 M) [ng/mL] | human-G-CSF equivalent concentration (compound conc. 10^−8 M) [ng/mL] |
| --- | --- | --- | --- |
| CCCCCCCCOc1ccc(Cl)cc1C(C)(O)Cn1ccnc1 (stereo not drawn) [Compound (1-3), 2-(5-Chloro-2-(n-octyloxy)phenyl)-1-(1H-1-imidazolyl)-2-propanol] | 0.057 ± 0.0005 | 0.057 ± 0.0005 | 0.018 ± 0.0001 |
| CCCCCCCCCOc1ccc(Cl)cc1C(C)(O)Cn1ccnc1 (stereo not drawn) [Compound (1-1), 2-(5-Chloro-2-(n-nonyloxy)phenyl)-1-(1H-1-imidazolyl)-2-propanol] | 0.131 ± 0.001 | 0.032 ± 0.0003 | 0.015 ± 0.0001 |
| CCCCCCCOc1ccc(Cl)cc1C(C)(O)Cn1ccnc1 (stereo not drawn) [Compound (1-2), 2-(5-Chloro-2-(n-heptyloxy)phenyl)-1-(1H-1-imidazolyl)-2-propanol] | 0.049 ± 0.0004 | 0.037 ± 0.0003 | 0.013 ± 0.0001 |
